Source: patent publication US10785978B2, “Control and repellency of biting flies, house flies, ticks, ants, fleas, biting midges, cockroaches, spiders and stink bugs” (priority 2012, dated 2020)
Values joined by “and” are separate entries in the source; they are usually repeats but may differ in a detail not shown here. Identical values can stand only once.

Assays:
Format in all cases: in vivo
[1] = test system: Cockroaches; experiment: Cockroach toxicity by forced exposure on treated filter paper; details: forced exposure 24 hours
Experimental: Additionally, toxicity was determined by forced exposure testing under the following protocol. Filter paper circles were treated with test compound. Cockroaches were released onto the treated circles and covered with inverted plastic cylinders placed over the paper discs. The cockroaches were left on the substrates for 24 hours and checked for mortality.

[2] = test system: brown marmorated stink bugs (BMSB); experiment: Brown marmorated stink bug repellency, treated vs. untreated filter paper arena
Experimental: The two semi-circle filter papers were aligned together to completely cover the bottom of the test arena. Control arenas were also set up in a similar fashion except both were treated with acetone. Five replicates of 5 BMSB were then introduced into both the treated and control arenas. By releasing them in the center of the arena, the BMSB were presented with a choice of treated vs. untreated substrate (or untreated vs. untreated in the control arenas). The repellency of the BMSB was recorded at 24 hours post-treatment.

[3] = test system: stable flies; experiment: Human forearm test against stable flies, time to first confirmed bite; details: average of two trials, maximum 8 hours
Experimental: Two insect repellents per day were tested by applying one on each arm of a human subject and inserting the arms into a cage containing 50 stable flies. The exposure period was five minutes at every 30 minute interval until the first time a confirmed bite was […] The stable flies were reared at ambient temperature, relative humidity and photoperiod. Groups of 50 flies were aspirated from the cage and released into 16 oz. cups with screened lids, which were used to release flies into the two test cages. […] Adjacent areas above and below the treated area were protected with elastic bandages held in place with Elastikon® surgical tape.
The application rate was between 0.65 ml and 1 ml/250 cm^2 for all repellents. The actual amount of repellent used was based upon the amount that provides thorough coverage of the 250 cm^2 treatment area. A repellent was applied using either a micropipette or a syringe minus the needle. The repellents were then evenly spread on the treatment area with a gloved finger. Each test subject's forearms were allowed to air dry for approximately 30 minutes prior to the first exposure. The study coordinator or technician assisted the test subjects in inserting their arms into the test cages, taking care not to rub them on the cloth sleeve. Both treated arms were inserted into a cage; there were two subjects (4 arms) per cage. The test subjects exposed their treated forearms to the flies in the test cages for 5 minutes. The subjects then removed their arms from the cages with assistance from the study coordinator or a technician. Exposures of each arm were repeated every 30 minutes until the repellent on that arm was determined to be no longer effective (‘breakdown’) or until 8 hours have elapsed, whichever occurs first.
Breakdown occurs when the first confirmed bite is noted. A confirmed bite occurs when a bite is followed by a second bite in the same exposure period or in the next succeeding exposure period. The second bite becomes the confirming bite and the breakdown time is taken as the time of the first bite. When a confirmed bite occurs, testing is discontinued on that arm. Results in Table 3 below are the average of two trials on two different test subjects. Compounds were diluted in isopropyl alcohol.

[4] = test system: house flies; experiment: House fly repellency on treated filter paper food trays in cages; details: over 6 hours
Experimental: The bottom of each cage was lined with brown craft paper and divided into 4 equal quadrants. Each quadrant housed a makeshift filter paper food tray. Two of the four filter papers were treated with repellent and two treated with isopropanol. Control cages contained filter papers that were treated with 4 filter papers of isopropanol only. The number of flies resting on filter paper per quadrant was recorded every 30 minutes for a total of 6 hours. Cages were rotated to eliminate positional bias. […] Each of the test samples were diluted in isopropyl alcohol.

[5] = test system: German cockroaches; experiment: German cockroach repellency, choice of food stations in arena; details: 50% in acetone; at 4 hours
Experimental: The efficacy of compounds of this invention to control or repel German cockroaches was illustrated using the following protocol. One food pellet each was placed on a paper square (station) treated with one of the repellent materials. Materials were diluted to 50% in acetone and a straight acetone station was also used. Both stations were placed on the same side of the arena. Cockroaches were starved for 2 days and then released into the arena. They were given a choice to feed on either food pellet. A control arena with an acetone treated station and an untreated station was also used. The distribution of cockroaches within the arena was recorded at 30 minute intervals over 4 hours. Repellency at 4 hours was calculated by the number of cockroaches on the untreated station vs. the total number of cockroaches on the stations.

[6] = test system: Brown Dog Ticks, Rhipicephalus sanguineus; experiment: Brown Dog tick repellency on vertical filter paper strips; details: 7.5% in isopropyl alcohol
Experimental: Control against Brown Dog ticks was determined in the following protocol. Strips of filter paper, 1″ by 3″, were placed on a sheet of aluminum foil treated with 1 ml each of the test samples and allowed to dry. The end of each treated strip was stapled to an untreated filter paper strip of the same dimensions. The stapled strips were suspended in a vertical position above a tray, with the treated half attached to a horizontal glass rod by a metal clip. The untreated half was lowered when the strip is vertically positioned. Brown Dog Ticks, Rhipicephalus sanguineus, mixed sexes, were purchased from a supplier. Five replicates of five ticks for each treatment regimen plus five additional replicates for the control were employed. Ticks shipped to the test site were given at least one day to acclimate to “shipping stress” before they are used for testing. Those tick specimens which appeared sluggish or moribund were not used. Suitable ticks were removed from their containers and allowed to quest on the free end of the test strip. Once present on the strip they were watched as they crawled up the strip until they contacted the treated paper. If the tick, once in contact with the treated zone, either turned around, stopped without proceeding further, or dropped off, the tick is classified as repelled. If it continued to crawl onto the treated strip, even after it stopped briefly, that tick was classified as not repelled. A maximum observation time of 1 minute per replicate was allowed for ticks to respond after reaching the treated area, but during the test, if more time was needed, the maximum observation time may have been adjusted at the discretion of the study coordinator. At the end of the observation time, the number of ticks repelled was recorded. Tick behavior was recorded when applicable, such as whether increased number of affected or repelled ticks occurred in successive replicates over time. After the completion of each treatment parameter, the testing chamber was ventilated for five minutes by turning on the exhaust fan and opening the door leading into the chamber. Ticks were used only once. Average number of ticks displaying each behavior category were calculated and compared to the control replicates.

[7] = test system: Brown Dog Ticks; experiment: Second repellent assay against Brown Dog Ticks; details: 15% in isopropyl alcohol
Experimental: Also, a second repellent assay was used to evaluate six test samples against Brown Dog Ticks. Five replicates of five ticks were given the opportunity to quest onto a vertical strip of untreated filter paper and then allowed to move upward toward a second vertical strip of filter paper treated with one of the six candidate repellents or DEET®. In the control situation, the second strip was treated with isopropanol. They were then observed for directional or behavioral changes caused in response to contact with the repellent. Ticks were recorded as either repelled or not repelled. Compounds were diluted in isopropyl alcohol. The percentages of ticks repelled are shown below in Table 6.

[8] = test system: Black Widow spiders; experiment: Black Widow spider choice test in half-treated tube shelters; details: 5% in isopropanol; location after 24 hours
Experimental: Control against Black Widow spiders was determined using the following protocol. One test container containing two card stock tube shelters, one half treated with a test sample and the other half treated with isopropanol was prepared. A spider was introduced in the center of the tube. The spider was then given a choice to move to one end of the shelters. The following day, its location is recorded and compared to the results from a shelter containing untreated half-shelters.
On the day of the test one of the two shelters was sprayed with the test sample solution using a 2 oz pump spray bottle. Only the surfaces that the spider will most likely contact were treated. Therefore, only the inside of one of the shelter tubes, including the end disc (spiders will not be able to access the outside part of the shelter) were sprayed. The total amount of product was weighed and recorded. The treated surface was allowed to dry for a minimum of ½ hour, or until solvent could not be detected by smell. At this time the shelter tubes were assembled.
Card stock paper tube shelters were constructed from 2 half-letter sized sheets (5½″×8½″) of paper, rolled and taped together to form a short tube. One end of each was covered with a circle of card stock paper, while the other end was later taped to the open end of the other half sheet, forming one long tube. […] The solvent-treated half was labeled with a “C” on the inner and outer walls with a pencil or a pen with solvent resistant ink. Prior to forming the final tube shelter, a semi-circular hole was cut into one of the margins of each sheet such that, once the two tubes are taped together, the holes correspond to the top and at the junction of the tubes for introduction of the spiders.
Twenty-five arenas were prepared in this manner for each test sample. There were five replicates of five spiders. Twenty-five additional control arenas were also prepared. They were prepared the same way, except that areas to be sprayed were sprayed with isopropanol only.
Replicates of five spiders were selected for each test formulation and for the control. The specimens were visually examined for overall physical condition. […] The spiders were transferred directly into the holding vials using flexible forceps or with a little coaxing with an artist brush. Because of their cannibalistic tendencies, each vial contained only one spider. There they were held until the time for testing.
At the test start the spiders were placed directly in the middle, through the opening at the top of the shelter tube, and the opening covered, with only one spider per arena. […] They were left alone for 24 hours, after which time their location within the arena was recorded. Spiders present inside the shelter treated with the test repellent were considered tolerant.

[9] = 30% in isopropyl alcohol on forearm

Compound	% Repellency at 24 hours ([2]; 2.5% in isopropyl alcohol)	100% bite protection for [3, 9]	Overall % Repellency ([4]; 7.5% in isopropyl alcohol)	% Repellency 4 hr [5]	other results
CCCCCCCC1CC(=O)C=C(C)C1 (stereo not shown) [3-Methyl-5-heptyl-2-cyclohexenone, 3-methyl-5-heptyl-2-cyclohexenone]	–	–	–	–	Mortality @ 24 hours ([1]; 2.5% in acetone): 10%
CCCCCC1CC(=O)C=C(C)C1 (stereo not shown) [3-Methyl-5-pentyl-2-cyclohexenone, 3-methyl-5-pentyl-2-cyclohexenone]	–	–	–	–	Mortality @ 24 hours ([1]; 2.5% in acetone): 96%
CC1CCC(C(C)(C)O)C(O)C1 (stereo not shown) [PMD, p-Menthane-3,8-diol, reference compound]	80%	6.5 h	–	–	100% bite protection for ([3]; 15% in isopropyl alcohol on forearm): 4.25 h
CCCCCC1C(=O)CCC1CC(=O)OCCC (stereo not shown) [Propyl dihydrojasmonate, propyl dihydrojasmonate]	80%	4 h	23%	87.5%	% Repellency at 24 hours ([2]; 5% in isopropyl alcohol): 100%; Overall % Repellency ([4]; 5% in isopropyl alcohol): 52%; Mean % repelled [6]: 96%; Mean % repelled [7]: 100%; % Repellency [8]: 62.5%
CCCCCCCCCCCCCC1CCC(=O)O1 (stereo not shown) [gamma-Heptadecalactone]	–	–	39%	100%	Mortality @ 24 hours ([1]; neat): 22%
CCCCCCCCCC1(C)CCC(=O)O1 (stereo not shown) [gamma-Methyl tridecalactone, gamma methyl tridecalactone]	80%	1.75 h	–	–	–
CCCCCCCCCCC1CCC(=O)O1 (stereo not shown) [gamma-Tetradecalactone, gamma-tetradecalactone]	82%	–	80%	82.4% and 75%	% Repellency at 24 hours ([2]; 5% in isopropyl alcohol): 91%; Mortality @ 24 hours ([1]; neat): 46%; Mean % repelled [7]: 92%
